Experimental data taken from patent US7772003B2, “Lipid derivatives of aminoglycosides” (Aventis Pharma S.A., priority 2001, dated 2010).
Entries after “also recorded” stand apart in the source; their conditions may differ.

Legend:
[1] = Electrophoretic gel shift studies (mean positive charge); type: physicochemical; conditions: complexed with nucleic acids
Protocol: (§1) This study was carried out for lipoplexes comprising various amounts of KanaChol: 6.6, 13.2, 33, 66 or 132 nmol of KanaChol per 5 μg of DNA. In order to determine the theoretical mean charge ratio, it was considered that 1 μg of DNA represents 3 nmol of negative charges and that 3 amine groups of kanamycin are protonated at neutral pH during the formation of the lipoplexes and the transfection.

[2] = tested on: HeLa cells; experiment: Cytotoxicity by total extractable cellular proteins in the cell lysate; type: cell-based; conditions: 48 hours post-transfection, high charge ratio
Protocol: FIG. 4: Cytotoxicity of the transfecting compound KanaChol. HeLa cells were transfected in accordance with the protocol described in Example 3 using lipoplexes prepared by mixing 5 μg of plasmid DNA expressing luciferase with the amount of lipid required to form lipoplexes characterized by the charge ratio indicated. At 48 hours post-transfection, the cells were recovered and the toxicity was quantified using the total amount of cellular proteins in the cell lysate as an index of the number of cells, cell death producing a decrease in the extractable proteins. The total cellular proteins in the cell lysate is indicated as a function of the charge ratio of the lipoplexes. The data are expressed as concentration of extractable cellular proteins in the cell lysate (at fixed volume).
FIG. 5: Cytotoxicity of the KanaChol/DOPE (molar ratio 1:1) lipsomes. […] At 48 hours post-transfection, the cells were recovered and the toxicity was quantified using the total amount of cellular proteins in the cell lysate as an index of the number of cells, cell death producing a decrease in the extractable proteins. […] The data are expressed as concentration of extractable cellular proteins in the cell lysate (at fixed volume).
Thus, the cytotoxicity of the KanaChol was also measured at various charge ratios with the DNA. […]

[3] = tested on: HeLa, HEK293 and COS cells; experiment: In vitro transfection, dose-response (luciferase reporter gene expression); type: cell-based
Protocol: FIG. 2: Dose-response curves of the in vitro transfection activity of the transfecting compound “KanaChol”. The expression of the reporter gene is indicated as a function of the charge ratio of the lipoplexes formed with the plasmid DNA. The HeLa, HEK293 and COS cells were transfected in accordance with the protocol described in Example 3 using lipoplexes prepared by mixing 5 μg of plasmid DNA expressing luciferase with the required amount of lipid. The data are expressed in relative light units (RLU) per mg of cellular proteins.
FIG. 3: Dose-response curves of the in vitro transfection activity of the KanaChol/DOPE (molar ratio 1:1) liposomes. The expression of the reporter gene is indicated as a function of the charge ratio of the lipoplexes formed with the plasmid DNA. The HeLa, HEK293 and COS cells were transfected in accordance with the protocol described in Example 4 using lipoplexes prepared by mixing 5 μg of plasmid DNA expressing luciferase with the required amount of lipid to form lipoplexes characterized by the charge ratio indicated. The data are expressed in relative light units (RLU) per mg of cellular proteins.
as §1
Preparation of the KanaChol/DNA lipoplexes: the KanaChol obtained according to Example 1 was dissolved in a 20 mM Hepes buffer solution (pH 7.4) at a positive charge concentration of 20 mM (considering that 3 amine functions are protonated at neutral pH). The lipoplexes were then prepared in accordance with the protocol described by Vigneron et al. (PNAS, 93, pp. 9682-9686, September. 1996) or by Patel et al. (Biochem. and Biophys. Res. Comm., 281, pp. 536-543, 2001).
Cell culture: HeLa cells (American Type Culture Collection (ATCC) Rockville, Md., USA) derived from a human cervical epithelium carcinoma were cultured in the presence of a medium of the MEM (minimum essential medium) type supplemented with 10% of fetal calf serum and antibiotics. The medium and the additives came from Gibco/BRL Life Technologies (Gaithersburg, Md., USA). The cells were cultured in flasks at 37° C. and at 5% of carbon dioxide in an incubator. […]
A 20 μl aliquot of supernatant of the centrifuged lysate was diluted in 100 μl of lysis buffer, to which 4 μl of 25 mM ATP (Sigma) and 20 μl of 25 mM luciferin (Sigma) were added. The samples were then placed in a Lumet LB9501 luminometer (Berthold, Nashua, N.H.) and the light emission integration value was measured for 10 seconds. […]

[4] = tested on: various cell lines (16HBE, HepG2); experiment: In vitro transfection activity spectrum in other, less conventional cell lines (luciferase); type: cell-based; conditions: charge ratios of between 3 and 5; KanaChol alone weaker in particular in 16HBE and HepG2
Protocol: FIG. 6: Expression of luciferase in various cell lines transfected either with the transfecting compound KanaChol or with the KanaChol/DOPE (1:1) liposomes. The various cell lines were transfected in accordance with the protocol described in Example 5 using either KanaChol/DNA lipoplexes or KanaChol/DOPE/DNA lipoplexes (with a positive charge ratio of 3-5) prepared by mixing 5 μg of plasmid DNA expressing luciferase and the required amount of lipid to obtain a positive charge ratio of 3-5. The data are expressed in relative light units (RLU) per mg of cellular proteins.
The in vitro transfection experiments carried out in Examples 4 and 5 were again carried out in a similar way, but with other less conventional cell lines (species and specificity of each cell line are indicated in FIG. 6). The KanaChol/DNA and KanaChol/DOPE/DNA formulations were used at charge ratios of between 3 and 5 (optimum values as defined in Examples 4 and 5).

[5] = tested on: HeLa; NIH 3T3; HEK298; COS; and 16HBE cell lines; experiment: In vitro transfection activity of NeoChol and NeoChol/DOPE (luciferase); type: cell-based; conditions: various charge ratios (1.3-26 NeoChol/DNA, 0.66-26 NeoChol/DOPE/DNA); 5 cell lines; NeoChol alone weaker particularly in 16HBE
Protocol: (§2) FIG. 8: Transfecting activity in various cell lines (HEK293, NIH3T3, HeLa, COS, 16HBE), which were transfected with the transfecting compound NeoChol. The expression of the reporter gene can be indicated as a function of the various charge ratio of the lipoplexes and plasmid DNA. The various cell lines were transfected according to the protocol as described in Example 8, using NeoChol/DNA lipoplexes, which were prepared by mixing 5 μg of plasmid DNA expressing luciferase. The data can be expressed in relative light units (RLU) per mg of cellular proteins.
as §2, with “FIG. 9: Expression of luciferase” for “FIG. 8: Transfecting activity”, “compound NeoChol/DOPE (1:1).” for “compound NeoChol.”, “gene is” for “gene can be”, “using NeoChol/DOPE/DNA” for “using NeoChol/DNA”, “data are” for “data can be”, “proteins. […]” for “proteins.”

CC(C)CCCC(C)C1CCC2C3CC=C4CC(OC(=O)NCC5OC(OC6C(N)CC(N)C(OC7OC(CO)C(O)C(N)C7O)C6O)C(O)C(O)C5O)CCC4(C)C3CCC12C (stereo not drawn) [KanaChol, 3β[6′-kanamycin-carbamoyl]cholesterol]
mean positive charge [1]: 2-3 | cytotoxicity (total extractable cellular proteins in the cell lysate) [2]: decrease in the total number of extractable cellular proteins | cell line with highest transfection ([3]; HeLa, HEK293 and COS compared): highest in the COS cell line | expression of the reporter gene luciferase (transfection) ([3]; lipoplexes with 5 μg plasmid DNA expressing luciferase, HeLa, HEK293 and COS cells, data in RLU per mg of cellular proteins): high expression levels | theoretical mean charge ratio of optimum transfection efficiency ([3]; lipoplexes with 5 μg plasmid DNA, 3 cell lines): approximately 5 | charge ratio at which the transfection efficiency decreases ([3]; very high charge ratios): > 7 | transfection efficiency (luciferase expression) [4]: less efficient overall

CC(C)CCCC(C)C1CCC2C3CC=C4CC(OC(=O)NCCSC[C@H]5O[C@@H](OC6C(O)[C@H](N)CC(N)[C@H]6O[C@H]6CC(CN)[C@@H](O)C(O)C6N)C(O)C5O[C@H]5OC(CN)[C@@H](O)C(O)C5N)CCC4(C)C3CCC12C (some centres unmarked) [NeoChol, (5″-aminoethylsulfanyl) neomycin carbamoyl cholesterol]
transfection efficacy (luciferase expression) [5]: efficient transfection; also recorded: somewhat less efficient
